Measurements: patent US4487927A, “3-Phosphonium and 3-phosphoranylidenecephems” (Fujisawa Pharmaceutical Co., Ltd., priority 1979, dated 1984)
Values after ≈ are worked out from the molar mass of the structure shown. Blank lines part the entries; values can stand above or below the compound they belong to.

Experiments:
[1] = tested on: Batilus subtilis ATCC 6633; assay: In vitro antimicrobial activity, two-fold agar-plate dilution method (MIC); format: cell-based; details: 37° C. for 20 hours, HI-agar; for MIC: 20 h, read-out: minimal inhibitory concentration (MIC)
Method: (§1) In vitro Antimicrobial activity was determined by the two-fold agar-plate dilution method as described below.
(§2) One loopful of an overnight culture of each test strain in Tripticase-soy broth (approximately 10^8 viable cells per ml) was streaked on heart infusion agar (HI-agar containing graded concentrations of antimicrobial agents, and the minimal inhibitory concentration (MIC) was expressed in term of μg/ml after incubation at 37° C. for 20 hours.

[2] = tested on: Staphylococcus aureus 209P JC-1; assay: as above; format: cell-based; details: 37° C. for 20 hours, HI-agar; for MIC: Staphylococcus aureus, 209P, 20 h, read-out: minimal inhibitory concentration (MIC)
Method: as §1, §2

[3] = Determination of serum levels after oral administration in rats (disc method); format: in vivo, SD strain; details: rat, 100 mg/kg orally, fasted male SD rats, read-out: Mean Serum Level
Method: (2) Test 2: Determination of serum levels after oral administration of anti-microbial agents in rats
6 weeks old male rats, SD strain, each weighing 160-230 g.
The test compound A (100 mg/kg) was given orally to rats which had been fasted overnight. At specified intervals, the rats were anethetized with chloroform and blood samples were collected from the heart. The anti-microbial levels in each serum sample were determined by the disc method using standard solutions prepared with serum from rats.

[4] = tested on: Escherichia coli 29; assay: Protecting effect in experimental mice infection; format: in vivo, ICR strain; Escherichia coli; details: Escherichia coli 29 injected intraperitoneally; oral dose one hour after injection; 4 days observation; probit method
Description: (3) Test 3: Protecting effect in experimental mice infection 4-weeks old male mice, ICR strain, each weighing 20.0±1.5 g. 1.3×10^4 cells of pathogenic microorganisms, suspended in 2.5% mucin, were intraperitoneally injected. One hour after the injection, Compound A was orally given.

[5] = tested on: Proteus mirabilis 18; assay: In vitro antimicrobial activity, two-fold agar-plate dilution method (MIC); format: cell-based; details: 37° C. for 20 hours, HI-agar, read-out: minimal inhibitory concentration (MIC)
Method: as §1, §2

[6] = tested on: Proteus mirabilis 1; assay: as above; format: cell-based; details: 37° C. for 20 hours, HI-agar, read-out: minimal inhibitory concentration (MIC)
Method: as §1, §2

[7] = tested on: Proteus vulgaris 2; assay: as above; format: cell-based; details: 37° C. for 20 hours, HI-agar, read-out: minimal inhibitory concentration (MIC)
Method: as §1, §2

SMILES: C=CC1=C(C(=O)O)N2C(=O)C(NC(=O)[C@H](N)c3cccc(NS(C)(=O)=O)c3)[C@H]2SC1 (stereo partly drawn) [Compound A, 7-[2-(3-Methanesulfonamidophenyl)-D-glycinamido]-3-vinyl-3-cephem-4-carboxylic acid]
- MIC [1]: 0.1 µg/mL (≈ 0.221 µM)
- MIC [2]: 1.56 µg/mL (≈ 3.45 µM)
- concentration at 1 h ([3]; 1 hour): 38500 ng/mL
- concentration at 2 h ([3]; 2 hours): 34900 ng/mL
- concentration at 4 h ([3]; 4 hours): 31000 ng/mL
- concentration at 6 h ([3]; 6 hours): 28800 ng/mL
- ED50 value [4]: 0.480 mg/mouse

SMILES: C=CC1=C(C(=O)O)N2C(=O)C(NC(=O)Cc3csc(N)n3)[C@H]2SC1 (stereo partly shown) [Compound B, 7-[2-(2-Aminothiazol-4-yl)acetamido]-3-vinyl-3-cephem-4-carboxylic acid]
- minimal inhibitory concentration (MIC) [1]: 1.56 µg/mL (≈ 4.26 µM)
- MIC [2]: 1.56 µg/mL (≈ 4.26 µM)

SMILES: C=CC1=C(C(=O)O)N2C(=O)C(NC(=O)C(O)c3csc(N)n3)[C@H]2SC1 (stereo partly shown) [Compound C, 7-[2-(2-Aminothiazol-4-yl)glycolamido]-3-vinyl-3-cephem-4-carboxylic acid]
- MIC [1]: 0.78 µg/mL (≈ 2.04 µM)
- MIC [2]: 1.56 µg/mL (≈ 4.08 µM)

SMILES: C=CC1=C(C(=O)O)N2C(=O)C(NC(=O)Cc3cnc(NC=O)s3)[C@H]2SC1 (stereo partly shown) [Compound D, 7-[2-(2-Formamidothiazol-5-yl)acetamido]-3-vinyl-3-cephem-4-carboxylic aci d]
- MIC [1]: 0.2 µg/mL (≈ 0.507 µM)
- MIC [2]: 0.39 µg/mL (≈ 0.989 µM)

SMILES: C=CC1=C(C(=O)O)N2C(=O)C(NC(=O)Cc3cnc(N)s3)[C@H]2SC1 (stereo partly shown) [Compound E, 7-[2-(2-Aminothiazol-5-yl)acetamido]-3-vinyl-3-cephem-4-carboxylic acid]
- MIC [1]: 0.05 µg/mL (≈ 0.136 µM)
- MIC [2]: 0.78 µg/mL (≈ 2.13 µM)

SMILES: C=CC1=C(C(=O)O)N2C(=O)C(NC(=O)Cc3cnc(NS(C)(=O)=O)s3)[C@H]2SC1 (stereo partly shown) [Compound F, 7-[2-(2-Methanesulfonamidothiazol-5-yl)acetamido]-3-vinyl-3-cephem-4-carboxylic acid]
- MIC [1]: 0.39 µg/mL (≈ 0.877 µM)
- MIC [2]: 1.56 µg/mL (≈ 3.51 µM)

SMILES: Br.C=CC1=C(C(=O)O)N2C(=O)C(NC(=O)Cc3csc(NC(=N)N)n3)[C@H]2SC1 (stereo partly shown) [Compound G, 7-[2-(2-Guanidinothiazol-4-yl)acetamido]-3-vinyl-3-cephem-4-carboxylic aci d hydrobromide]
- MIC [1]: 0.1 µg/mL
- MIC [2]: 0.39 µg/mL

SMILES: C=CC1=C(C(=O)O)N2C(=O)C(NC(=O)Cc3csc(N)n3)[C@H]2SC1 (stereo partly shown) [Compound H, 7-[2-(2-Aminothiazol-4-yl)acetamido]-3-vinyl-3-cephem-4-carboxylic acid]
- minimal inhibitory concentration (MIC) [1]: 0.39 µg/mL (≈ 1.06 µM)
- minimal inhibitory concentration (MIC) [2]: 0.78 µg/mL (≈ 2.13 µM)

SMILES: C=CC1=C(C(=O)O)N2C(=O)C(NC(=O)/C(=N\OC)c3csc(N)n3)C2SC1 (stereo not drawn) [Compound I, 7-[2-(2-Aminothiazol-4-yl)-2-methoxyiminoacetamido]-3-vinyl-3-cephem-4-carboxylic acid (syn isomer)]
- MIC [5]: < 0.025 µg/mL
- MIC [6]: 0.05 µg/mL (≈ 0.122 µM)

SMILES: C=CC1=C(C(=O)O)N2C(=O)C(NC(=O)/C(=N\OCC)c3csc(N)n3)C2SC1 (stereo not drawn) [Compound J, 7-[2-(2-Aminothiazol-4-yl)-2-ethoxyiminoacetamido]-3-vinyl-3-cephem-4-carboxylic acid (syn isomer)]
- MIC [1]: 0.78 µg/mL (≈ 1.84 µM)
- MIC [2]: 1.56 µg/mL (≈ 3.68 µM)

SMILES: C=CC1=C(C(=O)O)N2C(=O)C(NC(=O)/C(=N\OCCCCCC)c3csc(N)n3)C2SC1 (stereo not drawn) [Compound K, 7-[2-(2-Aminothiazol-4-yl)-2-hexyloxyiminoacetamido]-3-vinyl-3-cephem-4-carboxylic acid (syn isomer)]
- MIC [1]: 0.78 µg/mL (≈ 1.63 µM)
- MIC [2]: 1.56 µg/mL (≈ 3.25 µM)

More lines, now with the values ahead:

- MIC [5]: 0.05 µg/mL (≈ 0.0925 µM)
- MIC [6]: 0.05 µg/mL (≈ 0.0925 µM)
SMILES: C=CC1=C(C(=O)O)N2C(=O)C(NC(=O)/C(=N\OCC(=O)OC[C@H](N)C(=O)O)c3csc(N)n3)C2SC1 (stereo partly drawn) [Compound L, 7-[2-(2-Aminothiazol-4-yl)-2-(L-2-amino-2-carboxyethoxycarbonylmethoxyimino)acetamido]-3-vinyl-3-cephem-4-carboxylic acid (syn isomer)]

- MIC [5]: < 0.025 µg/mL
- MIC [6]: < 0.025 µg/mL
SMILES: C=CC1=C(C(=O)O)N2C(=O)C(NC(=O)/C(=N\OCC(=O)O)c3csc(N)n3)C2SC1 (stereo not drawn) [Compound M, 7-[2-(2-Aminothiazol-4-yl)-2-carboxymethoxyiminoacetamido]-3-vinyl-3-cephem-4-carboxylic acid (syn isomer)]

- MIC [7]: 0.05 µg/mL (≈ 0.102 µM)
- MIC [5]: 0.05 µg/mL (≈ 0.102 µM)
- MIC [6]: 0.2 µg/mL (≈ 0.41 µM)
SMILES: C=CC1=C(C(=O)O)N2C(=O)C(NC(=O)/C(=N\OCC(=O)O)c3nc(N)sc3Cl)C2SC1 (stereo not drawn) [Compound N, 7-[2-(2-Amino-5-chlorothiazol-4-yl)-2-carboxymethoxyiminoacetamido]-3-vinyl-3-cephem-4-carboxylic acid (syn isomer)]

- MIC [7]: < 0.025 µg/mL
- MIC [5]: 0.1 µg/mL (≈ 0.209 µM)
- MIC [6]: 0.1 µg/mL (≈ 0.209 µM)
SMILES: C=CC1=C(C(=O)O)N2C(=O)C(NC(=O)/C(=N\OC/C=C/C(=O)O)c3csc(N)n3)C2SC1 (stereo not drawn) [Compound O, 7-[2-(2-Aminothiazol-4-yl)-2-(trans-3-carboxyallyloxyimino)acetamido]-3-vinyl-3-cephem-4-carboxylic acid (syn isomer)]

- MIC [7]: < 0.025 µg/mL
- MIC [5]: 0.05 µg/mL (≈ 0.104 µM)
- MIC [6]: 0.1 µg/mL (≈ 0.208 µM)
SMILES: C=CC1=C(C(=O)O)N2C(=O)C(NC(=O)/C(=N\OCCCC(=O)O)c3csc(N)n3)C2SC1 (stereo not drawn) [Compound P, 7-[2-(2-Aminothiazol-4-yl)-2-(3-carboxypropoxyimino)acetamido]-3-vinyl-3-cephem-4-carboxylic acid (syn isomer)]
